Source: patent US9133225B2, “Dual targeting anticancer agents” (priority 2013, dated 2015)

What was measured:
[1] = tested on: A549 cells; test: JC-1 mitochondrial membrane potential assay; format: cell-based
Method: To investigate the effect of Pt(IV)(α-TOS)(OEt) on mitochondria, changes in the mitochondrial membrane potential were assessed by the JC-1 assay. JC-1 (5,5′,6,6′-tetrachloro-1,1′3,3′-tetraethylbenzimidazolylcarbocyanine iodide) is a positively charged lipophilic dye, which accumulates in the mitochondria of healthy cells as red-emitting aggregates. When the mitochondrial membrane is compromised, JC-1 de-aggregates into monomeric forms that emit green fluorescence. […] These findings were confirmed using flow cytometry. A large population of untreated and Pt(IV)(α-TOS)(OEt)-treated A549 cells were examined.
In order to monitor the cell cycle, flow cytometry studies were carried out. A549 cells were incubated with and without the test compounds for 24 and 48 h at 37° C. Cells were harvested from adherent cultures by trypsinization and combined with all detached cells from the incubation medium to assess total cell viability. Following centrifugation at 1000 rpm for 5 min, cells were washed with PBS and then fixed with 70% ethanol in PBS. Fixed cells were collected by centrifugation at 2500 rpm for 3 min, washed with PBS and centrifuged as before. Cellular pellets were re-suspended in 50 μg/mL propidium iodide (Sigma) in PBS for nucleic acids staining and treated with 100 μg/mL RNaseA (Sigma). DNA content was measured on a FACSCalibur-HTS flow cytometer (BD Biosciences) using laser excitation at 488 nm and 20,000 events per sample were acquired. Cell cycle profiles were analysed using the ModFit software. For the apoptosis experiments, the Annexin V-FITC Early Apoptosis Detection Kit (Cell Signaling Technology) was used. […] The samples were kept on ice prior to being read on the FACSCalibur-HTS flow cytometer (BD Biosciences) (20,000 events per sample were acquired). Cell populations were analysed using the FlowJo software (Tree Star). […] The cells were incubated for 30 min, harvested, and analysed by using the FACSCalibur-HTS flow cytometer (BD Biosciences) (20,000 events per sample were acquired). […] Cell populations were analysed using the FlowJo software (Tree Star).

[2] = tested on: Bcl-xL; test: Immunoblotting analysis of Bcl-xL expression; format: cell-based; settings: A549 cells
Method: α-TOS is known to disrupt Bcl-xL-Bax interactions, activate Bax, and thus mediate mitochondrial centered apoptotic cell death. Co-immunoprecipitation studies were carried out to determine whether the Pt(IV)-α-TOS conjugates could behave in a similar manner. […] Additional immunoblotting studies were carried to determine the effect of Pt(IV)(α-TOS)(OEt) treatment on transcription. […] Overall Pt(IV)(α-TOS)(OEt) was able to (1) downregulate Bcl-xL expression and (2) inhibit the interaction of Bcl-xL with Bax, a prerequisite for mitochondrial dysfunction. The former is inherent to cisplatin but not α-TOS, and the latter was inherent to α-TOS but not cisplatin.
A549 cells (5×10^5 cells) were incubated with test compound for 48 h at 37° C. Cells were washed with PBS, scraped into SDS-PAGE loading buffer (64 mM Tris-HCl (pH6.8)/9.6% glycerol/2% SDS/5% β-mercaptoethanol/0.01% Bromophenol Blue) and incubated at 95° C. for 10 min. Whole cell lysates were resolved by 4-20% sodium dodecylsulphate polyacylamide gel electrophoresis (SDS-PAGE; 200 V for 1 h) followed by electro transfer to polyvinylidene difluoride membrane, PVDF (350 mA for 1 h). Membranes were blocked in 5% (w/v) non-fat milk in PBST (PBS/0.1% Tween 20) and incubated with the appropriate primary antibodies (Cell Signalling Technology and Santa Cruz). After incubation with horseradish peroxidase-conjugated secondary antibodies (Cell Signalling Technology), immune complexes were detected with the ECL detection reagent (BioRad) and analysed using an Alpha Innotech ChemiImager™ 5500 fitted with a chemiluminescence filter.

[3] = tested on: all cell lines; test: MTT cytotoxicity assay, across the cell lines; format: cell-based; settings: non-tumorigenic lung fibroblast cells (MRC-5) vs ovarian carcinoma cells (A2780)
Text: (§1) (a) Dulbecco's Modified Eagle Medium (DMEM), Dulbecco's phosphate buffered saline (DPBS), fetal bovine serum (FBS) and 0.25% trypsin/EDTA solutions were purchased from Cellgro (Manassas, Va.). Penicillin-streptomycin solutions were purchased from Mediatech (Manassas, Va.). (b) HeLa (CCL-2TM) cells, A549, A2870, A2870/CP70, MCF-7, PC-3, and MRC-5 cells were purchased from American Type Culture Collection (ATCC, Manassas, Va., USA). (c) HCT116 cells were kindly donated by Laura Trudel (MIT). HeLa, A549, MCF-7, and MRC-5 cells were cultured using DMEM supplemented with 10% FBS and 1% penicillin-streptomycin. A2870, A2870/CP70, and PC-3 cells were cultured in RPMI supplemented with 10% FBS and 1% penicillin-streptomycin. HCT116 cells were cultured in McCoy's supplemented with 10% FBS and 1% penicillin-streptomycin. All cell-culture experiments were performed in the aforementioned media in an incubator operating at 37° C. and in the presence of a humidified atmosphere containing 5.0% CO2. Cells were harvested using a 0.25% trypsin/EDTA solution.
The cytotoxicity of the compounds was assessed by means of the MTT assay (MTT=3-(4,5-dimethyl-2-thiazolyl)-2,5-diphenyl-2H-tetrazolium bromide). Typically, on day one, ˜1×10^3 cells were seeded into 96-well plates in 100 μL media per well. […] The optical density for each well at 550 nm was measured with a microplate reader.

[4] = tested on: PC-3 cells; test: MTT cytotoxicity assay, PC-3; settings: read-out: cytotoxicity IC50; PC-3, prostate; MTT, 48 h treatment; spread in brackets
Text: as §1
The cytotoxicity of the compounds was assessed by means of the MTT assay (MTT=3-(4,5-dimethyl-2-thiazolyl)-2,5-diphenyl-2H-tetrazolium bromide). Typically, on day one, ˜1×10^3 cells were seeded into 96-well plates in 100 μL media per well. The last row of the plate was left empty as a control for background absorption. The cells were allowed to grow for 24 h in the incubator at 37° C. On day two, a series of drug dilutions in growth media were prepared immediately prior to cell treatment. The media in the wells of the 96 plates were replaced with 100 μL of growth media containing appropriate drug concentrations. The cells were treated for 48 h at 37° C. in the incubator. On day four, a stock solution of MTT (5 mg/mL in PBS buffer) was diluted with media so that, when 100 μL of the media was added to each well, 10 μL of MTT stock was applied. […] The optical density for each well at 550 nm was measured with a microplate reader.

Structure (SMILES): CC[O][Pt]([NH2])([NH2])([Cl])([Cl])[O]C(=O)CCC(=O)Oc1c(C)c(C)c2c(c1C)CCC(C)(CCCC(C)CCCC(C)CCCC(C)C)O2 (stereo not drawn) [Pt(IV)(α-TOS)(OEt)]
- cells expressing green JC-1 fluorescence (FL1-H), flow cytometry ([1]; 25 μM, 4 h): a marked increase in cells expressing green fluorescence
- JC-1 fluorescence (mitochondrial membrane disruption), microscopy ([1]; cisplatin or Pt(IV)(α-TOS)(OEt) at 20 μM, 4 hours): A similar phenomenon was observed
- Bcl-xL expression [2]: induced a reduction in Bcl-xL expression
- reduction in toxicity for MRC-5 compared to A2780 [3]: 265 fold
- IC50 [4]: 2.5 µM
